# Assay results from PubChem BioAssay AID330 (DTP/NCI, 2004).
# Several values for one entry are separate records, joined by “and”; a condition that tells them apart may be missing. Equal values may be shown once. Inconclusive results and toxic doses are left out. Peptide text beside a SMILES is read from it.
# Tested on: P388 leukemia ip, CD2F1 mice, survival T/C
# Experiment: NCI In Vivo Anticancer Drug Screen. Data for tumor model P388 Leukemia (intraperitoneal) in CD2F1 (CDF1) mice
# Conditions: endpoint: median survival time, higher = longer survival
# Method in brief: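 Mice carrying the transplanted tumor received test compound or vehicle. Survival was recorded in each group, and the value is the treated-group measurement divided by that of the vehicle-treated control group.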
# [1] = dose: 50.0 mg/kg/injection, schedule: Q01DX009 (ip), vehicle: saline with Tween-80
# [2] = dose: 50.0 mg/kg/injection, schedule: Q01DX009 (ip), vehicle: saline
# [3] = dose: 100.0 mg/kg/injection, schedule: Q01DX009 (ip), vehicle: saline with Tween-80
# [4] = dose: 25.0 mg/kg/injection, schedule: Q01DX005 (ip), vehicle: Klucel (hydroxypropylcellulose) (HPC)
# [5] = dose: 50.0 mg/kg/injection, schedule: Q01DX005 (ip), vehicle: Klucel (hydroxypropylcellulose) (HPC)
# [6] = dose: 100.0 mg/kg/injection, schedule: Q01DX005 (ip), vehicle: Klucel (hydroxypropylcellulose) (HPC)
# [7] = dose: 60.0 mg/kg/injection, schedule: Q01DX005 (ip), vehicle: Klucel (hydroxypropylcellulose) (HPC)
# [8] = dose: 120.0 mg/kg/injection, schedule: Q01DX005 (ip), vehicle: Klucel (hydroxypropylcellulose) (HPC)
# [9] = dose: 240.0 mg/kg/injection, schedule: Q01DX005 (ip), vehicle: Klucel (hydroxypropylcellulose) (HPC)
# [10] = dose: 60.0 mg/kg/injection, schedule: Q01DX005 (ip), vehicle: saline with Tween-80
# [11] = dose: 120.0 mg/kg/injection, schedule: Q01DX005 (ip), vehicle: saline with Tween-80
# [12] = dose: 50.0 mg/kg/injection, schedule: Q01DX005 (ip), vehicle: saline with Tween-80
# [13] = dose: 200.0 mg/kg/injection, schedule: Q01DX005 (ip), vehicle: saline
smiles,measurement,setting,value
CNC(=O)OCC1=C(COC(=O)NC)C2OC1C(C(=O)OC)=C2c1ccc(Cl)cc1 (stereo not drawn),T/C,"dose: 1.56 mg/kg/injection, schedule: Q01DX009 (ip), vehicle: distilled water + Tween-80",100 % of control
same,T/C,"dose: 3.13 mg/kg/injection, schedule: Q01DX009 (ip), vehicle: distilled water + Tween-80",92 % of control
same,T/C,"dose: 6.25 mg/kg/injection, schedule: Q01DX009 (ip), vehicle: distilled water + Tween-80",108 % of control
same,T/C,"dose: 12.5 mg/kg/injection, schedule: Q01DX009 (ip), vehicle: distilled water + Tween-80",90 % of control and 94 % of control
same,T/C,"dose: 25.0 mg/kg/injection, schedule: Q01DX009 (ip), vehicle: distilled water + Tween-80",88 % of control
same,T/C,"dose: 50.0 mg/kg/injection, schedule: Q01DX009 (ip), vehicle: distilled water + Tween-80",88 % of control
same,T/C,"dose: 100.0 mg/kg/injection, schedule: Q01DX009 (ip), vehicle: distilled water + Tween-80",88 % of control
same,T/C,"dose: 200.0 mg/kg/injection, schedule: Q01DX009 (ip), vehicle: distilled water + Tween-80",101 % of control
ClCC1CCN(Cc2ccccc2)CC1,T/C,"dose: 100.0 mg/kg/injection, schedule: Q04DX003 (ip), vehicle: saline with Tween-80",97 % of control
same,T/C,"dose: 200.0 mg/kg/injection, schedule: Q04DX003 (ip), vehicle: saline with Tween-80",100 % of control
Cc1ccc2cccc(OC(=O)Nc3ccc(Cl)c(Cl)c3)c2n1,T/C,"dose: 12.5 mg/kg/injection, schedule: Q01DX009 (ip), vehicle: saline",98 % of control
same,T/C,"dose: 25.0 mg/kg/injection, schedule: Q01DX009 (ip), vehicle: saline",103 % of control
same,T/C,[1],91 % of control
same,T/C,[2],103 % of control
same,T/C,[3],105 % of control
O=NN(CCCl)C(=O)Nc1ccc(CCO)cc1,T/C,"dose: 0.22 mg/kg/injection, schedule: Q01DX009 (ip), vehicle: saline + alcohol",118 % of control
same,T/C,"dose: 0.5 mg/kg/injection, schedule: Q01DX009 (ip), vehicle: saline + alcohol",154 % of control
same,T/C,"dose: 0.75 mg/kg/injection, schedule: Q01DX009 (ip), vehicle: saline + alcohol",172 % of control
same,T/C,"dose: 4.0 mg/kg/injection, schedule: Q01DX009 (ip), vehicle: saline",272 % of control
same,T/C,"dose: 6.0 mg/kg/injection, schedule: Q01DX009 (ip), vehicle: saline",272 % of control
same,T/C,"dose: 9.0 mg/kg/injection, schedule: Q01DX009 (ip), vehicle: saline",272 % of control
O=c1[nH]nc(SCc2ccccc2Cl)c(=O)[nH]1,T/C,[4],89 % of control
same,T/C,[5],89 % of control
same,T/C,[6],86 % of control
CCN(CC)c1cccc(Nc2nc3ccccc3s2)c1,T/C,[7],97 % of control
same,T/C,[8],88 % of control
same,T/C,[9],93 % of control
CC(O)CCC(=O)c1nc2ccccc2s1 (stereo not drawn),T/C,[7],95 % of control
same,T/C,[8],100 % of control
same,T/C,[9],98 % of control
O=c1cc(CCl)occ1O,T/C,[2],100 % of control and 113 % of control
same,T/C,"dose: 100.0 mg/kg/injection, schedule: Q01DX009 (ip), vehicle: saline",101 % of control and 103 % of control
same,T/C,"dose: 200.0 mg/kg/injection, schedule: Q01DX009 (ip), vehicle: saline",100 % of control and 113 % of control
same,T/C,"dose: 400.0 mg/kg/injection, schedule: Q01DX009 (ip), vehicle: saline",110 % of control and 95 % of control
COc1c(-c2ccccc2)oc2c(ccc3occc32)c1=O,T/C,"dose: 12.5 mg/kg/injection, schedule: Q01DX005 (ip), vehicle: Klucel (hydroxypropylcellulose) (HPC)",104 % of control
same,T/C,[4],99 % of control
same,T/C,[5],99 % of control
same,T/C,[6],87 % of control
same,T/C,"dose: 200.0 mg/kg/injection, schedule: Q01DX005 (ip), vehicle: Klucel (hydroxypropylcellulose) (HPC)",88 % of control
O=C1C=CC(=Nc2ccc(N(CCCl)CCCl)cc2)C=C1,T/C,"dose: 50.0 mg/kg/injection, schedule: Q01DX009 (ip), vehicle: Klucel (hydroxypropylcellulose) (HPC)",89 % of control
same,T/C,"dose: 100.0 mg/kg/injection, schedule: Q01DX009 (ip), vehicle: Klucel (hydroxypropylcellulose) (HPC)",89 % of control
Oc1cc(Br)ccc1/C=N/Nc1ccccn1,T/C,[10],90 % of control
same,T/C,[11],96 % of control
same,T/C,"dose: 240.0 mg/kg/injection, schedule: Q01DX005 (ip), vehicle: saline with Tween-80",101 % of control
CC(O)c1cc2c(cc1I)OCO2 (stereo not drawn),T/C,"dose: 100.0 mg/kg/injection, schedule: Q01DX001 (ip), vehicle: Klucel (hydroxypropylcellulose) (HPC)",106 % of control
same,T/C,"dose: 200.0 mg/kg/injection, schedule: Q01DX001 (ip), vehicle: Klucel (hydroxypropylcellulose) (HPC)",108 % of control
same,T/C,"dose: 400.0 mg/kg/injection, schedule: Q01DX001 (ip), vehicle: Klucel (hydroxypropylcellulose) (HPC)",107 % of control
COC(=O)C[C@@]1(C(=O)OC)[C@@H](C(=O)OC)C(C(=O)OC)=NN1C,T/C,"dose: 12.5 mg/kg/injection, schedule: Q04DX002 (ip), vehicle: Klucel (hydroxypropylcellulose) (HPC)",100 % of control
same,T/C,"dose: 25.0 mg/kg/injection, schedule: Q04DX002 (ip), vehicle: Klucel (hydroxypropylcellulose) (HPC)",98 % of control
same,T/C,"dose: 50.0 mg/kg/injection, schedule: Q04DX002 (ip), vehicle: Klucel (hydroxypropylcellulose) (HPC)",100 % of control
CC1C2CCC(C2)C1CNCC1C2CCC(C2)C1C (stereo not drawn),T/C,"dose: 12.5 mg/kg/injection, schedule: Q01DX005 (ip), vehicle: saline with Tween-80",100 % of control
same,T/C,"dose: 25.0 mg/kg/injection, schedule: Q01DX005 (ip), vehicle: saline with Tween-80",103 % of control
same,T/C,[12],101 % of control and 105 % of control
N#C/C(=N\Nc1cccc(C(F)(F)F)c1)C(N)=O,T/C,[5],103 % of control
same,T/C,[6],115 % of control
CC(C)NCC(O)COc1ccc(CCOC(=O)CCc2ccc(C(O)(C(F)(F)F)C(F)(F)F)cc2)cc1 (stereo not drawn),T/C,"dose: 30.0 mg/kg/injection, schedule: Q01DX005 (ip), vehicle: saline with Tween-80",98 % of control
same,T/C,[10],96 % of control
same,T/C,[11],102 % of control
C/C(=N\NC(=S)N1CCC1)c1ccccn1,T/C,"dose: 1.56 mg/kg/injection, schedule: Q01DX005 (ip), vehicle: other",99 % of control
same,T/C,"dose: 3.12 mg/kg/injection, schedule: Q01DX005 (ip), vehicle: other",103 % of control
same,T/C,"dose: 6.25 mg/kg/injection, schedule: Q01DX005 (ip), vehicle: other",99 % of control
same,T/C,"dose: 6.25 mg/kg/injection, schedule: Q01DX009 (ip), vehicle: saline with Tween-80",95 % of control
same,T/C,"dose: 12.5 mg/kg/injection, schedule: Q01DX005 (ip), vehicle: other",94 % of control
same,T/C,"dose: 12.5 mg/kg/injection, schedule: Q01DX009 (ip), vehicle: saline with Tween-80",99 % of control
same,T/C,"dose: 25.0 mg/kg/injection, schedule: Q01DX005 (ip), vehicle: other",100 % of control
O=C1NC(=O)c2cc(C(F)(F)F)ccc21,T/C,"dose: 3.0 mg/kg/injection, schedule: Q01DX009 (ip), vehicle: saline with Tween-80",95 % of control
same,T/C,"dose: 6.0 mg/kg/injection, schedule: Q01DX009 (ip), vehicle: saline with Tween-80",104 % of control
same,T/C,"dose: 12.0 mg/kg/injection, schedule: Q01DX009 (ip), vehicle: saline with Tween-80",90 % of control
CC(C)CC(NC(=O)C(C)N)C(=O)OC(C)(C)C (stereo not drawn),T/C,[12],101 % of control
same,T/C,"dose: 100.0 mg/kg/injection, schedule: Q01DX005 (ip), vehicle: saline with Tween-80",102 % of control
same,T/C,"dose: 200.0 mg/kg/injection, schedule: Q01DX005 (ip), vehicle: saline with Tween-80",96 % of control
NCC(=O)NCC(=O)O (H-Gly-Gly-OH),T/C,"dose: 50.0 mg/kg/injection, schedule: Q01DX005 (ip), vehicle: saline",100 % of control
same,T/C,"dose: 100.0 mg/kg/injection, schedule: Q01DX005 (ip), vehicle: saline",104 % of control
same,T/C,[13],100 % of control
CC1(C)OCC(C2OC3OC(C)(C)OC3/C2=N/NC(=O)c2cc3cc(OCc4ccccc4)ccc3[nH]2)O1 (stereo not drawn),T/C,"dose: 6.25 mg/kg/injection, schedule: Q01DX005 (ip), vehicle: saline",93 % of control
same,T/C,"dose: 12.5 mg/kg/injection, schedule: Q01DX005 (ip), vehicle: saline",93 % of control
same,T/C,"dose: 25.0 mg/kg/injection, schedule: Q01DX005 (ip), vehicle: saline",88 % of control
same,T/C,[13],94 % of control
CCOC(=O)C1(c2ccccc2)C(=O)Oc2ccccc21 (stereo not drawn),T/C,[1],107 % of control
same,T/C,[3],124 % of control
same,T/C,"dose: 200.0 mg/kg/injection, schedule: Q01DX009 (ip), vehicle: saline with Tween-80",106 % of control
Cc1nn(C)cc1P(=O)(c1ccccc1)c1ccccc1,T/C,[5],98 % of control
same,T/C,[6],96 % of control
